Assay results taken from patent US6126940A, “Hair-growing agent comprised of proanthocyanidins” (Kyowa Hakko Kogyo Co., Ltd., priority 1994, dated 2000).

Test system: dd mice
Assay: Acute Toxicity
Format: in vivo, mouse (male dd)
Details: subcutaneous, 2000 mg/kg, five male dd mice

Oc1cc(O)c2c(c1)O[C@H](c1ccc(O)c(O)c1)[C@H](O)[C@H]2c1c(O)cc(O)c2c1O[C@H](c1ccc(O)c(O)c1)[C@H](O)C2 [Compound 2, epicatechin-(4β→8)-epicatechin]
mortality: none of the mice died
